# In patent publication US20020137929A1, “1 - (3-heterocyclylphenyl) isothiourea, -isourea, -guanidine and -amidine herbicidal agents” (Intellectual Property Department, BASF Aktiengesellschaft, priority 1998, published 2002):
# How the values were obtained:
# SETVI (Foxtail, Green) [1] = test: Postemergence herbicidal evaluation; assay type: in vivo, Setaria viridis
# Procedure, shortened: (§1)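 Visual 0-9 injury score (stand, vigor, malformation, size, chlorosis, appearance vs untreated) taken four to five weeks post-spray, averaged across repeat tests. Test plants about two weeks old; foliar spray of acetone/water (1:1) with 0.5% surfactant delivering ~0.0156-0.500 kg active/ha.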
# CYPIR (Rice Flatsedge) = test: Postemergence weed control under flooded paddy conditions; assay type: in vivo, Cyperus iria; settings: postemergence weeds, 3-4 weeks after treatment
# Procedure, shortened: (§2)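 Injury ratings (0–9 scale covering stand, vigor, malformation, size, chlorosis and overall appearance versus control) were made three to four weeks after treatment. Test material, about 0.0313 to 0.500 kg/ha a.i. in 50/50 v/v aqueous/acetone, was added to flood water 1.5 to 3 cm deep over 3 to 5 cm weeds and 1.5 to 2.5 leaf rice.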
# ABUTH (Velvetleaf) [2] = test: Postemergence herbicidal evaluation; assay type: in vivo, Abutilon theophrasti
# Procedure, shortened: as §1
# CASOB (Sicklepod) = test: Preemergence herbicidal evaluation; assay type: in vivo, Cassia obtusifolia; settings: rated 4-5 weeks after treatment
# Procedure, shortened: (§3)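 Scores use a 0–9 visual scale covering stand, vigor, malformation, size and chlorosis relative to controls, rated four to five weeks after treatment. Before emergence, soil-planted seeds were sprayed with compound in aqueous acetone at roughly 0.0156–0.500 kg/ha and held in the greenhouse.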
# ECHCG (Barnyardgrass) = test: Postemergence herbicidal evaluation; assay type: in vivo, Echinochloa crus-galli
# Procedure, shortened: as §1
# AMBEL (Ragweed, Common) = test: Postemergence herbicidal evaluation; assay type: in vivo, Ambrosia artemisifolia
# Procedure, shortened: as §1
# ABUTH (Velvetleaf) [3] = test: Preemergence herbicidal evaluation; assay type: in vivo, Abutilon theophrasti; settings: rated 4-5 weeks after treatment
# Procedure, shortened: as §3
# [4] = test system: TRZAWR (Wheat, Winter, cv Riband); test: Postemergence herbicidal evaluation; assay type: in vivo, Triticum aestivum
# Procedure, shortened: as §1
# SETVI (Foxtail, Green) [5] = test: Preemergence herbicidal evaluation; assay type: in vivo, Setaria viridis; settings: rated 4-5 weeks after treatment
# Procedure, shortened: as §3
# [6] = test system: SAGPY (Arrowhead (Pygmaea)); test: Postemergence weed control under flooded paddy conditions; assay type: in vivo, Sagittaria pygmaea; settings: postemergence weeds, 3-4 weeks after treatment
# Procedure, shortened: as §2
# ORYSAT (Rice, Tebonnet) = test: Postemergence herbicidal evaluation; assay type: in vivo, Oryza sativa, (L.) Tebonnet
# Procedure, shortened: as §1
# [7] = test system: SAGPY (Arrowhead (Pygmaea)); test: Preemergence weed control under flooded paddy conditions; assay type: in vivo, Sagittaria pygmaea; settings: rated 3-4 weeks after treatment
# Procedure, shortened: (§4)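 First, seeds or propagules go into the top 0.5 cm of silt loam; next, water is held 1.5 to 3 cm over the soil; then compound (50/50 acetone/water) is pipetted into it at about 0.0313 to 0.500 kg/ha; finally plants are rated visually 0-9 after three to four weeks.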
# [8] = test system: GLXMAW (Soybean, Williams); test: Postemergence herbicidal evaluation; assay type: in vivo, Glycine max, (L.) Merr. cv Williams
# Procedure, shortened: as §1
# MOOVA (Monochoria) = test: Preemergence weed control under flooded paddy conditions; assay type: in vivo, Monochoria vaginalis; settings: rated 3-4 weeks after treatment
# Procedure, shortened: as §4
smiles,measurement,setting,value
"CCOC(=O)CN1C(=O)C(CC(=O)O)O/C1=N/c1cc(-n2c(=O)cc(C(F)(F)F)n(C)c2=O)c(F)cc1Cl (centres unmarked) [Compound 41, 2-{{2-Chloro-5-[3,6-dihydro-3-methyl-2,6-dioxo-4-(trifluoromethyl)-1(2H)-pyrimidinyl]-4-fluoro-phenyl}imino}-4-oxo-3,5-oxazolidinediacetic acid, 3-ethyl ester]",Postemergence herbicidal rating SETVI,"SETVI (Foxtail, Green) [1]; Rate 0.0158 kg/ha",1.0
same,Postemergence herbicidal rating SETVI,"SETVI (Foxtail, Green) [1]; Rate 0.0315 kg/ha",3.0
same,Postemergence herbicidal rating SETVI,"SETVI (Foxtail, Green) [1]; Rate 0.0630 kg/ha",9.0
same,Herbicidal rating CYPIR,CYPIR (Rice Flatsedge); rate 0.0313 kg/ha,0.0
same,Herbicidal rating CYPIR,CYPIR (Rice Flatsedge); rate 0.0625 kg/ha,0.0
same,Herbicidal rating CYPIR,CYPIR (Rice Flatsedge); rate 0.1250 kg/ha,0.0
same,Herbicidal rating CYPIR,CYPIR (Rice Flatsedge); rate 0.2500 kg/ha,4.0
same,Postemergence herbicidal rating ABUTH,ABUTH (Velvetleaf) [2]; Rate 0.0158 kg/ha,9.0
same,Postemergence herbicidal rating ABUTH,ABUTH (Velvetleaf) [2]; Rate 0.0315 kg/ha,9.0
same,Postemergence herbicidal rating ABUTH,ABUTH (Velvetleaf) [2]; Rate 0.0630 kg/ha,9.0
same,Preemergence herbicidal rating CASOB,CASOB (Sicklepod); rate 0.0156 kg/ha,0.0
same,Preemergence herbicidal rating CASOB,CASOB (Sicklepod); rate 0.0313 kg/ha,0.0
same,Preemergence herbicidal rating CASOB,CASOB (Sicklepod); rate 0.0625 kg/ha,0.0
same,Preemergence herbicidal rating CASOB,CASOB (Sicklepod); rate 0.1250 kg/ha,9.0
same,Preemergence herbicidal rating CASOB,CASOB (Sicklepod); rate 0.2500 kg/ha,9.0
same,Postemergence herbicidal rating ECHCG,ECHCG (Barnyardgrass); Rate 0.0158 kg/ha,2.0
same,Postemergence herbicidal rating ECHCG,ECHCG (Barnyardgrass); Rate 0.0315 kg/ha,7.0
same,Postemergence herbicidal rating ECHCG,ECHCG (Barnyardgrass); Rate 0.0630 kg/ha,9.0
same,Postemergence herbicidal rating AMBEL,"AMBEL (Ragweed, Common); Rate 0.0158 kg/ha",9.0
same,Postemergence herbicidal rating AMBEL,"AMBEL (Ragweed, Common); Rate 0.0315 kg/ha",9.0
same,Postemergence herbicidal rating AMBEL,"AMBEL (Ragweed, Common); Rate 0.0630 kg/ha",9.0
same,Preemergence herbicidal rating ABUTH,ABUTH (Velvetleaf) [3]; rate 0.0156 kg/ha,7.0
same,Preemergence herbicidal rating ABUTH,ABUTH (Velvetleaf) [3]; rate 0.0313 kg/ha,9.0
same,Preemergence herbicidal rating ABUTH,ABUTH (Velvetleaf) [3]; rate 0.0625 kg/ha,9.0
same,Preemergence herbicidal rating ABUTH,ABUTH (Velvetleaf) [3]; rate 0.1250 kg/ha,9.0
same,Preemergence herbicidal rating ABUTH,ABUTH (Velvetleaf) [3]; rate 0.2500 kg/ha,9.0
same,Postemergence herbicidal rating TRZAWR,[4]; Rate 0.0158 kg/ha,4.0
same,Postemergence herbicidal rating TRZAWR,[4]; Rate 0.0315 kg/ha,4.0
same,Postemergence herbicidal rating TRZAWR,[4]; Rate 0.0630 kg/ha,5.0
same,Preemergence herbicidal rating SETVI,"SETVI (Foxtail, Green) [5]; rate 0.0156 kg/ha",0.0
same,Preemergence herbicidal rating SETVI,"SETVI (Foxtail, Green) [5]; rate 0.0313 kg/ha",0.0
same,Preemergence herbicidal rating SETVI,"SETVI (Foxtail, Green) [5]; rate 0.0625 kg/ha",1.0
same,Preemergence herbicidal rating SETVI,"SETVI (Foxtail, Green) [5]; rate 0.1250 kg/ha",1.0
same,Preemergence herbicidal rating SETVI,"SETVI (Foxtail, Green) [5]; rate 0.2500 kg/ha",9.0
same,Herbicidal rating SAGPY,[6]; rate 0.0313 kg/ha,0.0
same,Herbicidal rating SAGPY,[6]; rate 0.0625 kg/ha,0.0
same,Herbicidal rating SAGPY,[6]; rate 0.1250 kg/ha,0.0
same,Herbicidal rating SAGPY,[6]; rate 0.2500 kg/ha,6.0
same,Postemergence herbicidal rating ORYSAT,"ORYSAT (Rice, Tebonnet); Rate 0.0158 kg/ha",2.5
same,Postemergence herbicidal rating ORYSAT,"ORYSAT (Rice, Tebonnet); Rate 0.0315 kg/ha",3.5
same,Postemergence herbicidal rating ORYSAT,"ORYSAT (Rice, Tebonnet); Rate 0.0630 kg/ha",3.5
same,Herbicidal rating SAGPY,[7]; 0.0313 kg/ha,0.0
same,Herbicidal rating SAGPY,[7]; 0.0625 kg/ha,0.0
same,Herbicidal rating SAGPY,[7]; 0.1250 kg/ha,0.0
same,Herbicidal rating SAGPY,[7]; 0.2500 kg/ha,6.0
same,Postemergence herbicidal rating GLXMAW,[8]; Rate 0.0158 kg/ha,8.0
same,Postemergence herbicidal rating GLXMAW,[8]; Rate 0.0315 kg/ha,8.0
same,Postemergence herbicidal rating GLXMAW,[8]; Rate 0.0630 kg/ha,9.0
same,Herbicidal rating MOOVA,MOOVA (Monochoria); 0.0313 kg/ha,6.0
same,Herbicidal rating MOOVA,MOOVA (Monochoria); 0.0625 kg/ha,9.0
same,Herbicidal rating MOOVA,MOOVA (Monochoria); 0.1250 kg/ha,9.0
same,Herbicidal rating MOOVA,MOOVA (Monochoria); 0.2500 kg/ha,9.0
"CCOC(=O)COc1ccccc1CC1S/C(=N/c2cc(-n3c(=O)cc(C(F)(F)F)n(C)c3=O)c(F)cc2Cl)N(CC(=O)OCC)C1=O (centres unmarked) [Compound 42, 2-{{2-Chloro-5-[3,6-dihydro-3-methyl-2,6-dioxo-4-(trifluoromethyl)-1(2H)-pyrimidinyl]-4-fluoro-phenyl}imino}-5-(o-hydroxybenzyl)-4-oxo-3-thiazolidineacetic acid, ethyl ester, ester with ethyl glycolate]",Postemergence herbicidal rating SETVI,"SETVI (Foxtail, Green) [1]; Rate 0.0158 kg/ha",0.0
same,Postemergence herbicidal rating SETVI,"SETVI (Foxtail, Green) [1]; Rate 0.0315 kg/ha",1.0
same,Postemergence herbicidal rating SETVI,"SETVI (Foxtail, Green) [1]; Rate 0.0630 kg/ha",1.0
same,Herbicidal rating CYPIR,CYPIR (Rice Flatsedge); rate 0.0313 kg/ha,0.0
same,Herbicidal rating CYPIR,CYPIR (Rice Flatsedge); rate 0.0625 kg/ha,0.0
same,Herbicidal rating CYPIR,CYPIR (Rice Flatsedge); rate 0.1250 kg/ha,0.0
same,Herbicidal rating CYPIR,CYPIR (Rice Flatsedge); rate 0.2500 kg/ha,0.0
same,Postemergence herbicidal rating ABUTH,ABUTH (Velvetleaf) [2]; Rate 0.0158 kg/ha,9.0
same,Postemergence herbicidal rating ABUTH,ABUTH (Velvetleaf) [2]; Rate 0.0315 kg/ha,9.0
same,Postemergence herbicidal rating ABUTH,ABUTH (Velvetleaf) [2]; Rate 0.0630 kg/ha,9.0
same,Preemergence herbicidal rating CASOB,CASOB (Sicklepod); rate 0.0313 kg/ha,0.0
same,Preemergence herbicidal rating CASOB,CASOB (Sicklepod); rate 0.0625 kg/ha,1.0
same,Preemergence herbicidal rating CASOB,CASOB (Sicklepod); rate 0.1250 kg/ha,0.0
same,Preemergence herbicidal rating CASOB,CASOB (Sicklepod); rate 0.2500 kg/ha,0.0
same,Postemergence herbicidal rating ECHCG,ECHCG (Barnyardgrass); Rate 0.0158 kg/ha,1.0
same,Postemergence herbicidal rating ECHCG,ECHCG (Barnyardgrass); Rate 0.0315 kg/ha,2.0
same,Postemergence herbicidal rating ECHCG,ECHCG (Barnyardgrass); Rate 0.0630 kg/ha,4.0
same,Postemergence herbicidal rating AMBEL,"AMBEL (Ragweed, Common); Rate 0.0158 kg/ha",9.0
same,Postemergence herbicidal rating AMBEL,"AMBEL (Ragweed, Common); Rate 0.0315 kg/ha",9.0
same,Postemergence herbicidal rating AMBEL,"AMBEL (Ragweed, Common); Rate 0.0630 kg/ha",9.0
same,Preemergence herbicidal rating ABUTH,ABUTH (Velvetleaf) [3]; rate 0.0313 kg/ha,1.0
same,Preemergence herbicidal rating ABUTH,ABUTH (Velvetleaf) [3]; rate 0.0625 kg/ha,1.0
same,Preemergence herbicidal rating ABUTH,ABUTH (Velvetleaf) [3]; rate 0.1250 kg/ha,9.0
same,Preemergence herbicidal rating ABUTH,ABUTH (Velvetleaf) [3]; rate 0.2500 kg/ha,9.0
same,Postemergence herbicidal rating TRZAWR,[4]; Rate 0.0158 kg/ha,3.5
same,Postemergence herbicidal rating TRZAWR,[4]; Rate 0.0315 kg/ha,3.5
same,Postemergence herbicidal rating TRZAWR,[4]; Rate 0.0630 kg/ha,3.5
same,Preemergence herbicidal rating SETVI,"SETVI (Foxtail, Green) [5]; rate 0.0313 kg/ha",0.0
same,Preemergence herbicidal rating SETVI,"SETVI (Foxtail, Green) [5]; rate 0.0625 kg/ha",1.0
same,Preemergence herbicidal rating SETVI,"SETVI (Foxtail, Green) [5]; rate 0.1250 kg/ha",0.0
same,Preemergence herbicidal rating SETVI,"SETVI (Foxtail, Green) [5]; rate 0.2500 kg/ha",0.0
same,Herbicidal rating SAGPY,[6]; rate 0.0313 kg/ha,0.0
same,Herbicidal rating SAGPY,[6]; rate 0.0625 kg/ha,0.0
same,Herbicidal rating SAGPY,[6]; rate 0.1250 kg/ha,0.0
same,Herbicidal rating SAGPY,[6]; rate 0.2500 kg/ha,3.0
same,Postemergence herbicidal rating ORYSAT,"ORYSAT (Rice, Tebonnet); Rate 0.0158 kg/ha",2.5
same,Postemergence herbicidal rating ORYSAT,"ORYSAT (Rice, Tebonnet); Rate 0.0315 kg/ha",2.5
same,Postemergence herbicidal rating ORYSAT,"ORYSAT (Rice, Tebonnet); Rate 0.0630 kg/ha",3.0
same,Herbicidal rating SAGPY,[7]; 0.0313 kg/ha,0.0
same,Herbicidal rating SAGPY,[7]; 0.0625 kg/ha,0.0
same,Herbicidal rating SAGPY,[7]; 0.1250 kg/ha,0.0
same,Herbicidal rating SAGPY,[7]; 0.2500 kg/ha,3.0
same,Postemergence herbicidal rating GLXMAW,[8]; Rate 0.0158 kg/ha,5.5
same,Postemergence herbicidal rating GLXMAW,[8]; Rate 0.0315 kg/ha,6.0
same,Postemergence herbicidal rating GLXMAW,[8]; Rate 0.0630 kg/ha,6.5
same,Herbicidal rating MOOVA,MOOVA (Monochoria); 0.0313 kg/ha,7.0
same,Herbicidal rating MOOVA,MOOVA (Monochoria); 0.0625 kg/ha,9.0
same,Herbicidal rating MOOVA,MOOVA (Monochoria); 0.1250 kg/ha,9.0
same,Herbicidal rating MOOVA,MOOVA (Monochoria); 0.2500 kg/ha,9.0
